Like-named read-outs stand apart in the source and are kept apart here.

In data set [1] the test system is P335. The following applies: P335 ref 6; cited from earlier work.
Data set [2] relates to glioblastoma Hs683. The following applies: glioblastoma Hs683 ref 9, 10; cited from earlier work.
The subject of data set [3] is cancer stem cells (CSCs) in MDA-MB-231 cell line. The following applies: MDA-MB-231 cell line ref 12; cited from earlier work.
The test system of data set [4] is MDA-MB-231. The data set is described as follows: cells. In kind it is cell-based. The conditions noted are these: for IC50: Homo sapiens.
The subject of data set [5] is MCF10A. The data set is described as follows: cells. It is filed as cell-based. The conditions noted are these: Homo sapiens, MCF-10A, read-out: IC50, cell viability.
Data set [6] is described as follows: in vitro. In kind it is cell-based. The following applies: human.
Data set [7] relates to stem-like cells with epithelial-mesenchymal transition (EMT) properties. The conditions noted are these: cited from earlier work.
Data set [8] relates to chronic lymphocytic leukemia (CLL). The following applies: chronic lymphocytic leukemia (CLL) ref 8; cited from earlier work.

Take `CC(C)=C[C@H]1C[C@H](C)[C@]2(CC[C@]3(C)C[C@H]4[C@H](C(=O)C[C@@]4(C)O)/C(C=O)=C\C[C@H]32)O1` [OpA, ophiobolin A]: the IC50 in data set [1] is 63 nM; in data set [2] it was 620 nM; in data set [4] (MDA-MB-231, read-out: IC50, cell viability) it was 69 ± 24 nM; in data set [4] (MDA-MB-231, read-out: cytotoxicity (IC50) as quoted in text) it was about 69 nM; in data set [5], 198 ± 76 nM; in data set [6], about 200 nM. For the same compound, the IC50 in data set [8] was 1 nM. The “effect on CD44/CD24-positive population” value in data set [3] was “significantly reducing the CD44/CD24-positive population”. Further, the “selectivity between cancer vs non-cancer cell line” value in data set [4] (MDA-MB-231 vs MCF-10A) was ~ 3 fold. Further, in data set [7], the “induction of cell death in stem-like cells with EMT properties” value was “specifically induces cell death”.

As for `CC(C)=CCC[C@H](C)[C@@]1(O)CC[C@]2(C)C[C@H]3[C@H](C(=O)C[C@@]3(C)O)/C(C=O)=C\C[C@H]21` [compound 2], the “effect on CD44/CD24-positive population” value in data set [3] is given as “significantly reducing the CD44/CD24-positive population”.

The values above are taken from paper PMC7655722 (Organic letters, 2020).
